Measured values taken from ChEMBL document CHEMBL1121440, “Soft drugs. 2. Soft alkylating compounds as potential antitumor agents” (1980).

Assays:
Format in all cases: functional
Conditions in all cases: P388, ip, route intraperitoneal
[1] = test system: Mus musculus; assay: Evaluated for % increase in median survival rate against P388 Lymphocytic Leukemia at a dose of 100 mg/kg administered intraperitoneally
[2] = test system: Mus musculus; assay: Evaluated for % increase in median survival rate against P388 Lymphocytic Leukemia at a dose of 200 mg/kg administered intraperitoneally
[3] = test system: Mus musculus; assay: Evaluated for % increase in median survival rate against P388 Lymphocytic Leukemia at a dose of 400 mg/kg administered intraperitoneally
[4] = test system: Mus musculus; assay: Evaluated for % increase in median survival rate against P388 Lymphocytic Leukemia at a dose of 50 mg/kg administered intraperitoneally

CCCCCCC(=O)OCCl [HEPTANOIC ACID CHLOROMETHYL ESTER] gave an ILS at 100 mg/kg [1] of 120%, an ILS at 200 mg/kg [2] of 127% and an ILS at 400 mg/kg [3] of 109%. It also gave an ILS at 50 mg/kg [4] of 107%.
